Test results as given in PubChem BioAssay AID1963971 (Molecular Pharmacology Branch, DTP, NCI, 2024).

Test system: 953936-095-R-J2-PDC spheroids with HUVEC/MSC, viability
Assay: Anticancer human tumor 953936-095-R-J2-PDC patient-derived cervical squamous cell carcinoma cell line growth inhibition [PI3K]
Conditions: for IC50: curve of first compound; for viability, T/C: stronger effect = lower value
Excerpt: Combinatorial screen of targeted agents with the PI3K inhibitors inavolisib, alpelisib, duvelisib, and copanlisib in multi-cell type tumor spheroids
A high-throughput screen of multi-cell type tumor spheroids was designed to identify active combinations of targeted small molecules and PI3K pathway inhibitors. Complex spheroids include a stromal component modeled by human endothelial cells (HUVEC) and fibroblasts modeled by human mesenchymal stem cells (MSCs). The concentration ranges selected for each drug and investigational agent were based upon clinically achievable concentrations if the clinical Cmax of the agent was known.
Compounds. The drugs and investigational agents: inavolisib (NSC800729), alpelisib (NSC765974), duvelisib (NSC772469), copanlisib (NSC816437), ipatasertib (NSC767898), afuresertib (NSC778305), talazoparib (NSC767125), sapanisertib (NSC764658), selumetinib (NSC741078), tovorafenib (DAY101, NSC766906), vemurafenib (NSC761431), ravoxertinib (NSC781343), sotorasib (NSC818433), MRTX1133 (NSC 836407), abemaciclib (NSC 768073), palbociclib (NSC758247), venetoclax (NSC 766270), SY5609 (NSC837396), enzalutamide (NSC755605), and darolutamide (NSC825331), were obtained from the National Cancer Institute (NCI) Developmental Therapeutics Program Chemical Repository. The FDA-approved anticancer drug set is available from the NCI Developmental Therapeutics Program. […] The stock solutions were prepared in dimethyl sulfoxide (DMSO, Sigma-Aldrich, St. Louis, MO, cat. D2650) at 800-fold the tested concentration and stored at -70 degrees C prior to their use. All drugs and investigational agents were tested over a range starting from a high concentration at or near the clinical Cmax and decreasing in half-log increments. If the clinical Cmax for an agent had not been determined, the highest concentration tested was 10 microM.
Cell Culture. All cells were maintained in an incubator at 37 degrees C and 5% CO2 with 95% humidity. The PDC lines were cultured according to standard operating procedures established by the NCI PDMR (https://pdmr.cancer.gov/sops/default.htm). All PDCs were thawed and cultured in Matrigel-coated flasks prepared with a working solution of 1X Ham's F-12 nutrient mix, without supplementation (Invitrogen, Waltham, MA, cat. 11765054), 100 U/mL penicillin-streptomycin (Invitrogen, cat. 15140122), and 2.5% Matrigel (Corning Inc., Corning, NY, cat. 354248) for the first three passages. The 354836-022-R-J1-PDC, 475296-252-R-J1-PDC, and 997726-040-R-J2-PDC lines were cultured in 6A media, which includes advanced DMEM/F-12 (Thermo Fisher Scientific, cat. 12634028), 10 mM HEPES (Thermo Fisher Scientific, cat. 15630080), 1X GlutaMAX supplement (Thermo Fisher Scientific, cat. 35050061), 0.1 mg/mL primocin (InvivoGen, San Diego, CA, cat. ant-pm-2), 10% defined fetal bovine serum, heat inactivated (HyClone Laboratories Inc., Logan, UT, cat. SH30070.03HI), 50% L-WRN conditioned media (ATCC, cat. CRL-3276), 1.25 mM N-Acetyl-L-cysteine (Sigma-Aldrich, cat. A9165), 10 mM nicotinamide (Sigma-Aldrich, cat. N0636), 1X B-27 supplement (Thermo Fisher Scientific, cat. 17504044), 1X N-2 supplement (Thermo Fisher Scientific, cat. 17502048), and 10 microM Y-27632 dihydrochloride (Tocris Bioscience, Bristol, United Kingdom, cat. 1254). The 624824-186-R-J2-PDC line was cultured in 6C/Colon 1B media, which includes all 6A media components plus 50 ng/mL human EGF recombinant protein (Thermo Fisher Scientific, cat. PHG0311). […]

[1] = second compound 0.00316 µM, first compound 0.0316 µM
[2] = second compound 0.00316 µM, first compound 0.1 µM
[3] = second compound 0.01 µM, first compound 0.0316 µM
[4] = second compound 0.01 µM, first compound 0.1 µM
[5] = second compound 0.0316 µM, first compound 0.0316 µM
[6] = second compound 0.0316 µM, first compound 0.1 µM
[7] = second compound 0.1 µM, first compound 0.0316 µM
[8] = second compound 0.1 µM, first compound 0.1 µM
[9] = second compound 0.316 µM, first compound 0.0316 µM
[10] = second compound 0.316 µM, first compound 0.1 µM
[11] = second compound 1 µM, first compound 0.0316 µM
[12] = second compound 1 µM, first compound 0.1 µM
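Note: spheroids exposed to compounds for seven days before read-out.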

SMILES: Cn1ncc(Cl)c1-c1cc(C(=O)NC(CN)Cc2cccc(F)c2)sc1Cl (centres undefined) + COc1c(OCCCN2CCOCC2)ccc2c3n(c(=NC(=O)c4cnc(N)nc4)nc12)CCN3
- IC50 (second compound 0.00316 µM): 486 nM
- IC50 (second compound 0.01 µM): 337 nM
- IC50 (second compound 0.0316 µM): < 31.6 nM
- IC50 (second compound 0.1 µM): < 31.6 nM
- IC50 (second compound 0.316 µM): < 31.6 nM
- IC50 (second compound 1 µM): < 31.6 nM
- viability, T/C [1]: 81.2%
- viability, T/C [2]: 85.4%
- viability, T/C (second compound 0.00316 µM, first compound 0.316 µM): 54.1%
- viability, T/C (second compound 0.00316 µM, first compound 1 µM): 36.5%
- viability, T/C (second compound 0.00316 µM, first compound 3.16 µM): 17.8%
- viability, T/C (second compound 0.00316 µM, first compound 10 µM): 10.2%
- viability, T/C [3]: 69.4%
- viability, T/C [4]: 68.6%
- viability, T/C (second compound 0.01 µM, first compound 0.316 µM): 49.8%
- viability, T/C (second compound 0.01 µM, first compound 1 µM): 28.7%
- viability, T/C (second compound 0.01 µM, first compound 3.16 µM): 14.4%
- viability, T/C (second compound 0.01 µM, first compound 10 µM): 8.14%
- viability, T/C [5]: 39.1%
- viability, T/C [6]: 36.8%
- viability, T/C (second compound 0.0316 µM, first compound 0.316 µM): 32.5%
- viability, T/C (second compound 0.0316 µM, first compound 1 µM): 19.1%
- viability, T/C (second compound 0.0316 µM, first compound 3.16 µM): 9.8%
- viability, T/C (second compound 0.0316 µM, first compound 10 µM): 4.58%
- viability, T/C [7]: 21.8%
- viability, T/C [8]: 17.8%
- viability, T/C (second compound 0.1 µM, first compound 0.316 µM): 14.3%
- viability, T/C (second compound 0.1 µM, first compound 1 µM): 12.9%
- viability, T/C (second compound 0.1 µM, first compound 3.16 µM): 6.24%
- viability, T/C (second compound 0.1 µM, first compound 10 µM): 2.41%
- viability, T/C [9]: 5.73%
- viability, T/C [10]: 5.77%
- viability, T/C (second compound 0.316 µM, first compound 0.316 µM): 6.01%
- viability, T/C (second compound 0.316 µM, first compound 1 µM): 3.54%
- viability, T/C (second compound 0.316 µM, first compound 3.16 µM): 3.19%
- viability, T/C (second compound 0.316 µM, first compound 10 µM): 1.52%
- viability, T/C [11]: 1.54%
- viability, T/C [12]: 1.61%
- viability, T/C (second compound 1 µM, first compound 0.316 µM): 1.15%
- viability, T/C (second compound 1 µM, first compound 1 µM): 1.37%
- viability, T/C (second compound 1 µM, first compound 3.16 µM): 1.11%
- viability, T/C (second compound 1 µM, first compound 10 µM): 0.46%

SMILES: CC(=O)c1c(C)c2cnc(Nc3ccc(N4CCNCC4)cn3)nc2n(C2CCCC2)c1=O + CC(Nc1ccc2c(c1)OCCn1cc(N3C(=O)OCC3C(F)F)nc1-2)C(N)=O
- IC50 (second compound 0.00316 µM): > 100 nM
- IC50 (second compound 0.01 µM): > 100 nM
- IC50 (second compound 0.0316 µM): > 100 nM
- IC50 (second compound 0.1 µM): > 100 nM
- IC50 (second compound 0.316 µM): < 0.316 nM
- IC50 (second compound 1 µM): < 0.316 nM
- viability, T/C (second compound 0.00316 µM, first compound 0.000316 µM): 89.4%
- viability, T/C (second compound 0.00316 µM, first compound 0.001 µM): 93.1%
- viability, T/C (second compound 0.00316 µM, first compound 0.00316 µM): 98%
- viability, T/C (second compound 0.00316 µM, first compound 0.01 µM): 99.6%
- viability, T/C [1]: 93.5%
- viability, T/C [2]: 93.3%
- viability, T/C (second compound 0.01 µM, first compound 0.000316 µM): 94.9%
- viability, T/C (second compound 0.01 µM, first compound 0.001 µM): 87.5%
- viability, T/C (second compound 0.01 µM, first compound 0.00316 µM): 88.9%
- viability, T/C (second compound 0.01 µM, first compound 0.01 µM): 93.8%
- viability, T/C [3]: 85.7%
- viability, T/C [4]: 92%
- viability, T/C (second compound 0.0316 µM, first compound 0.000316 µM): 76.3%
- viability, T/C (second compound 0.0316 µM, first compound 0.001 µM): 74.9%
- viability, T/C (second compound 0.0316 µM, first compound 0.00316 µM): 74.8%
- viability, T/C (second compound 0.0316 µM, first compound 0.01 µM): 76.5%
- viability, T/C [5]: 79.1%
- viability, T/C [6]: 68.4%
- viability, T/C (second compound 0.1 µM, first compound 0.000316 µM): 66.9%
- viability, T/C (second compound 0.1 µM, first compound 0.001 µM): 59.6%
- viability, T/C (second compound 0.1 µM, first compound 0.00316 µM): 58.6%
- viability, T/C (second compound 0.1 µM, first compound 0.01 µM): 54.5%
- viability, T/C [7]: 55.6%
- viability, T/C [8]: 54.5%
- viability, T/C (second compound 0.316 µM, first compound 0.000316 µM): 35.2%
- viability, T/C (second compound 0.316 µM, first compound 0.001 µM): 34.6%
- viability, T/C (second compound 0.316 µM, first compound 0.00316 µM): 35.6%
- viability, T/C (second compound 0.316 µM, first compound 0.01 µM): 37.7%
- viability, T/C [9]: 33.6%
- viability, T/C [10]: 35.3%
- viability, T/C (second compound 1 µM, first compound 0.000316 µM): 25%
- viability, T/C (second compound 1 µM, first compound 0.001 µM): 22.6%
- viability, T/C (second compound 1 µM, first compound 0.00316 µM): 21.7%
- viability, T/C (second compound 1 µM, first compound 0.01 µM): 22%
- viability, T/C [11]: 25.5%
- viability, T/C [12]: 22.9%
